The source of these data is patent US20250034094A1, “A FAST AND EFFICIENT PROCESS FOR THE PREPARATION OF N-RETINYLIDENE-N-RETINYLETHANOLAMINE (A2E)” (Purdue Research Foundation, priority 2021, published 2025).

For series [1] the following is noted: HPLC analysis, cited from earlier work.
The test system of a further series is ARPE19 cells. The experiment in a line: Cell viability assay (AlamarBlue) of ARPE19 cells treated with A2E lots, with or without inhibitors. In kind it is cell-based. The conditions noted are these: RPE cells, 24 hours in the dark. The method, then:
ARPE19 cells from ATCC were plated at 80% confluency in 96-well plates and pre-treated for 1 hour with inhibitors (33 μM Necrostatin 7 (Cayman Chemicals): 2 mM N-acetyl-cysteine (NAC) (Sigma): 50 μg/ml phoroglucinol (Sigma)), after which the medium was supplemented with A2E/ATRD or vehicle (control) and cells were incubated in serum-free OptiMEM (Invitrogen) medium for an additional 23 hours at 37° C. To assess viability, 20 μL of 10× AlamarBlue® (Invitrogen) were added per well, and cells were incubated for an additional hour before reading the fluorescence in SpectraMax M5e (Molecular Devices, CA, USA) using 555 nm excitation/585 nm emission.
On the technique in general: Resazurin is reduced to fluorescent resorufin, in cell work by metabolically active cells.

`CC(C=CC1=C(C)CCCC1(C)C)=CC=CC(C)=Cc1cc(C=CC=C(C)C=CC2=C(C)CCCC2(C)C)cc[n+]1CCO` [A2E, N-retinylidene-N-retinylethanolamine]: the “stability in THF, CHCl3 or EtOH” value in series [1] (solvents THF, CHCl3 or EtOH) is given as “not stable”. Also, in series [1] (solvents methanol and DMSO), the “stability in methanol and DMSO” value was “stable”.
Regarding `CC(C=CC1=C(C)CCCC1(C)C)=CC=CC(C)=Cc1cc(C=CC=C(C)C=CC2=C(C)CCCC2(C)C)cc[n+]1CCO` [A2E #1, N-retinylidene-N-retinylethanolamine], the “protection from A2E-induced toxicity by antioxidants (NAC)” value with ARPE19 cells (pre-treated with 2 mM N-acetyl-cysteine) is on record as “partially protected by antioxidants (NAC)”.
On to `CC(C=CC1=C(C)CCCC1(C)C)=CC=CC(C)=Cc1cc(C=CC=C(C)C=CC2=C(C)CCCC2(C)C)cc[n+]1CCO` [A2E #3, N-retinylidene-N-retinylethanolamine], for which the “neutralization of A2E toxicity by necroptosis inhibitor Nec7” value in the series with ARPE19 cells (pre-treated with 33 μM Necrostatin 7) is recorded as “better neutralized with the necroptosis inhibitor, Nec7”.
